Literature values in patent US20140234433A1, “Topical Composition for Stimulating Epidermis and Dermis Layers of the Skin” (priority 2013, published 2014).

System: facial skin

In the case of CC1=C(/C=C/C(C)=C/C=C/C(C)=C/C(=O)O)C(C)(C)CCC1 [tretinoin], the histological characteristics (0.001% dosage) is listed as “same histological characteristics as the inactive base material”, the histological response (0.01% and 0.05%) is listed as “increased response with an increase in tretinoin concentrations” and the epidermal thickness (24 weeks) is listed as “increase”. The “findings in the dermis” value (24 weeks) was “no positive findings”, the melanocytes (24 weeks) was “decrease” and the stratum corneum (24 weeks) was “stratum corneum compactness”. For the same molecule, the granular layer thickness (24 weeks, 1 layer to 2-3 layers) was “increase”, the dermal changes (48 weeks of treatment) was “limited” and the “subjects showing erythema, scaling and peeling, and reporting stinging” value (average of the studies) was “approximately 80%”. The “dermal findings on continued use” value (continued use up to 4 years) was “decrease in elastin and perivascular inflammation”.
